In US9145392B2, “Imidazole amines as modulators of kinase activity” (Merck Patent GmbH, priority 2011, dated 2015) one finds IC50 data, which are given here for 35 compounds.

For test [1], the target named is P70S6K (T412E mutant) (Homo sapiens (Human), UniProt P23443, T412E). Description: P70S6K enzyme assay. The format is biochemical. The conditions noted are these: read-out: IC50 p70S6K. An outline of the steps:
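Phosphorylated product and substrate peptide separated by microfluidic capillary electrophoresis (Caliper LabChip 3000), product peaks resolving before substrate.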

Test [2] has as its target His-AKT (Full Length) (Homo sapiens (Human), UniProt P31749). The test can be described thus: AKT enzyme assay. The format is biochemical. The conditions noted are these: read-out: IC50 AKT.

The structures appear in SMILES notation. pIC50: −log10 of the molar value.

Chain of His-AKT (Full Length) (P31749 whole entry): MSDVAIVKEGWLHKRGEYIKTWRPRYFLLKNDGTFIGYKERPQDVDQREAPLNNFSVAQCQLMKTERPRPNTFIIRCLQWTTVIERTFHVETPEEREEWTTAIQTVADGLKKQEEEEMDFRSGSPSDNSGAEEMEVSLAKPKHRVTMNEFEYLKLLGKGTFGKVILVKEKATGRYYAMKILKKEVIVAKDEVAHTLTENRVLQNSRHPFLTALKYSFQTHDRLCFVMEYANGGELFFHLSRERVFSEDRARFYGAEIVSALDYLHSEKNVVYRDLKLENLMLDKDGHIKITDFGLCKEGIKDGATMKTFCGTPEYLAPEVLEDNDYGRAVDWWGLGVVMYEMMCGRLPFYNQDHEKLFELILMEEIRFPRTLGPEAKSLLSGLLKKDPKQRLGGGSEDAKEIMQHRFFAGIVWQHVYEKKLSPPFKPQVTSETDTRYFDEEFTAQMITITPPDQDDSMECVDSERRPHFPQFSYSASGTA
Chain of P70S6K (T412E mutant) (P23443 whole entry T412E): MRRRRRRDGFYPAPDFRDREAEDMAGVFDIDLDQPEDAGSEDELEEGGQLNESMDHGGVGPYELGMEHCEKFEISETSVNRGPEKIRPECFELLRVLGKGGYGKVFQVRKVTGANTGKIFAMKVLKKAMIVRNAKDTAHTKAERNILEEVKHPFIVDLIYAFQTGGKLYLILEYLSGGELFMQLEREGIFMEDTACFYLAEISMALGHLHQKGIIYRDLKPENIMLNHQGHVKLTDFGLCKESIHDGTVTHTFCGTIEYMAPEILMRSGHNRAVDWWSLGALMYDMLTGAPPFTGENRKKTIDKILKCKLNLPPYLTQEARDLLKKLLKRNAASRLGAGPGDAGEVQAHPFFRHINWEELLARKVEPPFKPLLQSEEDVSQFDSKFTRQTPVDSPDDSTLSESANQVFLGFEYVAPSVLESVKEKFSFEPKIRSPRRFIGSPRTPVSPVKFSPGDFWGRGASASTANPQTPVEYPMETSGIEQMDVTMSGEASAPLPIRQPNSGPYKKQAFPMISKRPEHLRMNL

As for `CN(C)CCn1cc(-c2ccc(F)c(C(F)(F)F)c2)nc1C1CCN(c2ncnc(N)c2-c2ccncc2)CC1` [Compound 69, 6-{4-[1-(2-Dimethylamino-ethyl)-4-(4-fluoro-3-trifluoromethyl-phenyl)-1H-imidazol-2-yl]-piperidin-1-yl}-5-pyridin-4-yl-pyrimidin-4-ylamine], the pIC50 (as a rule, the IC50 on a negative log10 scale, so that one unit is a factor of ten) in test [1] was 8.52; in test [2], 7.37.

For `NC(=O)c1c(N)ncnc1N1CCC(c2nc(-c3ccnc(C(F)(F)F)c3)cn2CCN2CCC2)CC1` [Compound 128], the pIC50 in test [1] is 8.26; in test [2], 7.05.

Consider `CCN(CC)CCn1cc(-c2ccc(F)c(C)c2)nc1C1CCN(c2ncnc(N)c2C(N)=O)CC1` [Compound 349], for which the pIC50 is 7.60 in test [1] and 7.26 in test [2].

Turning to `Cc1cc(-c2cn(CCN(C)C)c(C3CCN(c4ncnc(N)c4OC(C)C)CC3)n2)ccc1F` [Compound 294], the pIC50 in test [1] is 8.89; in test [2], 8.72.

As to `CN(C)CCn1cc(-c2ccc(F)c(C(F)(F)F)c2)nc1C1CCN(c2ncnc(N)c2Br)CC1` [Compound 67, 5-Bromo-6-{4-[1-(2-dimethylamino-ethyl)-4-(4-fluoro-3-trifluoromethyl-phenyl)-1H-imidazol-2-yl]-piperidin-1-yl}-pyrimidin-4-ylamine], the pIC50 in test [1] was 8.66; in test [2], 8.03.

`CCc1cc(-c2cn(CCN3CCC3)c(C3CCN(c4ncnc(N)c4C#N)CC3)n2)ccn1` [Compound 318]: the pIC50 is 8.85 in test [1] and 7.82 in test [2].

With `CN(C)CCn1cc(-c2ccc(F)c(C(F)(F)F)c2)nc1C1CCN(c2ncnc(N)c2CCC2CC2)CC1` [Compound 83, 5-(2-Cyclopropylethyl)-6-(4-(1-(2-(dimethylamino)ethyl)-4-(4-fluoro-3-(trifluoromethyl)phenyl)-1H-imidazol-2-yl)piperidin-1-yl)pyrimidin-4-amine], the pIC50 in test [1] is 7.70; in test [2], 6.72.

Turning to `CCc1c(N)ncnc1N1CCC(c2nc(-c3ccc(F)c(C)c3)cn2CC2CN(C)C2)CC1` [Compound 400, 5-Ethyl-6-{4-[4-(4-fluoro-3-methyl-phenyl)-1-(1-methyl-azetidin-3-ylmethyl)-1H-imidazol-2-yl]-piperidin-1-yl}-pyrimidin-4-ylamine], the pIC50 is 10.22 in test [1] and 9.52 in test [2].

Consider `Nc1ncnc(N2CCC(c3nc(-c4ccc(F)c(F)c4)cn3CCN3CCCC3)CC2)c1C1CCC1` [Compound 255], for which the figures for the pIC50 in test [1] and in test [2] were 8.16 and 8.03, respectively.

Turning to `Nc1ncnc(N2CCC(c3nc(-c4ccc(C(F)(F)F)c(F)c4)cn3CCN3CCCCC3)CC2)c1C1CCC1` [Compound 253], the pIC50 in test [1] is 7.72; in test [2], 7.55.

Regarding `Nc1ncnc(N2CCC(c3nc(-c4ccc(F)c(C(F)(F)F)c4)cn3CCN3CCCC3)CC2)c1-c1ccccc1F` [Compound 58], the negative logarithm of the IC50 (pIC50) was 8.43 in test [1] and 7.12 in test [2].

Take `N#Cc1c(N)ncnc1N1CCC(c2nc(-c3ccc(F)c(C(F)(F)F)c3)cn2CCNCC2CC2)CC1` [Compound 358, 4-Amino-6-{4-[1-[2-(cyclopropylmethyl-amino)-ethyl]-4-(4-fluoro-3-trifluoromethyl-phenyl)-1H-imidazol-2-yl]-piperidin-1-yl}-pyrimidine-5-carbonitrile]: the pIC50 in test [1] is 8.96; in test [2] it was 8.80.

Consider `COc1cc(-c2cn(CCN3CCC3)c(C3CCN(c4ncnc(N)c4C(N)=O)CC3)n2)ccc1F` [Compound 121, 4-amino-6-(4-(1-(2-(azetidin-1-yl)ethyl)-4-(4-fluoro-3-methoxyphenyl)-1H-imidazol-2-yl)piperidin-1-yl)pyrimidine-5-carboxamide], for which the pIC50 in test [1] is 9.00; in test [2] it was 8.62.

As for `N#Cc1c(N)ncnc1N1CCC(c2nc(-c3ccoc3)cn2CCN2CCC2)CC1` [Compound 129, 4-amino-6-(4-(1-(2-(azetidin-1-yl)ethyl)-4-(furan-3-yl)-1H-imidazol-2-yl)piperidin-1-yl)pyrimidine-5-carbonitrile], the pIC50 in test [1] is 7.96; in test [2], 6.60.

As for `CC(C)Oc1c(N)ncnc1N1CCC(c2nc(-c3ccc(F)c(C(F)(F)F)c3)cn2CCN(C)C)CC1` [Compound 292], the pIC50 is 8.47 in test [1] and 8.12 in test [2].

For the compound `CC(C)Oc1c(N)ncnc1N1CCC(c2nc(-c3ccc(F)c(Cl)c3)cn2CCN2CCCC2)CC1` [Compound 290], the figures for the pIC50 in test [1] and in test [2] were 8.89 and 8.70, respectively.

Take `CCc1c(N)ncnc1N1CCC(c2nc(-c3ccc(C(F)(F)F)c(F)c3)cn2CCN2CCC(F)(F)CC2)CC1` [Compound 247]: the pIC50 was 8.26 in test [1] and 6.28 in test [2].

On to `Cc1cc(-c2cn(CCO)c(C3CCN(c4ncnc(N)c4C(N)=O)CC3)n2)ccc1F` [Compound 393, 4-Amino-6-{4-[4-(4-fluoro-3-methyl-phenyl)-1-(2-hydroxy-ethyl)-1H-imidazol-2-yl]-piperidin-1-yl}-pyrimidine-5-carboxylic acid amide], for which the pIC50 in test [1] is 8.55; in test [2] it was 7.33.

With `N#Cc1c(N)ncnc1N1CCC(c2nc(-c3cc[nH]c(=O)c3)cn2CCN2CCC2)CC1` [Compound 315], the figures for the pIC50 in test [1] and in test [2] were 7.00 and 6.30, respectively.

Turning to `Cc1ccc(-c2cn(CCN3CCC3)c(C3CCN(c4ncnc(N)c4C(N)=O)CC3)n2)cc1C(F)(F)F` [Compound 340], the results for the pIC50 in test [1] and in test [2] were 8.40 and 6.38, respectively.

For `C=Cc1c(N)ncnc1N1CCC(c2nc(-c3ccc(F)c(C(F)(F)F)c3)cn2CC2CNC2)CC1` [Compound 183, 6-(4-(1-(azetidin-3-ylmethyl)-4-(4-fluoro-3-(trifluoromethyl)phenyl)-1H-imidazol-2-yl)piperidin-1-yl)-5-vinylpyrimidin-4-amine], the figures for the pIC50 in test [1] and in test [2] were 7.92 and 7.13, respectively.

For `Nc1ncnc(N2CCC(c3nc(-c4ccc(F)c(C(F)(F)F)c4)cn3CCN3CCCCC3)CC2)c1-c1ccc(F)cc1` [Compound 62], the figures for the pIC50 in test [1] and in test [2] were 7.74 and 6.46, respectively.

For `CS(=O)(=O)c1cccc(-c2cn(CCN3CCC3)c(C3CCN(c4ncnc(N)c4C(N)=O)CC3)n2)c1` [Compound 356, 4-Amino-6-{4-[1-(2-azetidin-1-yl-ethyl)-4-(3-methanesulfonyl-phenyl)-1H-imidazol-2-yl]-piperidin-1-yl}-pyrimidine-5-carboxylic acid amide], the results for the negative-log IC50 (pIC50) in test [1] and in test [2] were 7.10 and 6.25, respectively.

Turning to `Cc1cc(-c2cn(CCN3CCCC3)c(C3CCN(c4ncnc(N)c4C#N)CC3)n2)ccc1F` [Compound 324], the results for the pIC50 in test [1] and in test [2] were 8.55 and 8.46, respectively.

As for `CCc1c(N)ncnc1N1CCC(c2nc(-c3cnc(N(C)C)nc3)cn2CCN2CCC2)CC1` [Compound 352, 6-{4-[1-(2-Azetidin-1-yl-ethyl)-4-(2-dimethylamino-pyrimidin-5-yl)-1H-imidazol-2-yl]-piperidin-1-yl}-5-ethyl-pyrimidin-4-ylamine], the pIC50 was 6.51 in test [1] and 5.24 in test [2].

Consider `NC(=O)c1c(N)ncnc1N1CCC(c2nc(-c3ccc(F)c(C(F)(F)F)c3)cn2CCNC2CCCC2)CC1` [Compound 387, 4-Amino-6-{4-[1-(2-cyclopentylamino-ethyl)-4-(4-fluoro-3-trifluoromethyl-phenyl)-1H-imidazol-2-yl]-piperidin-1-yl}-pyrimidine-5-carboxylic acid amide], for which the pIC50 was 8.85 in test [1] and 8.08 in test [2].

In the case of `CCC(C)(C)NCCn1cc(-c2ccc(F)c(C(F)(F)F)c2)nc1C1CCN(c2ncnc(N)c2C(N)=O)CC1` [Compound 388, 4-Amino-6-{4-[1-[2-(1,1-dimethyl-propylamino)-ethyl]-4-(4-fluoro-3-trifluoromethyl-phenyl)-1H-imidazol-2-yl]-piperidin-1-yl}-pyrimidine-5-carboxylic acid amide], the values for the negative-log IC50 (pIC50) in test [1] and in test [2] were 8.70 and 7.89, respectively.

As for `Cc1cc(-c2cn(CCNCC(C)C)c(C3CCN(c4ncnc(N)c4C#N)CC3)n2)ccc1F` [Compound 390, 4-Amino-6-{4-[4-(4-fluoro-3-methyl-phenyl)-1-(2-isobutylamino-ethyl)-1H-imidazol-2-yl]-piperidin-1-yl}-pyrimidine-5-carbonitrile], the pIC50 in test [1] is 8.72; in test [2], 8.85.

As for `CCOc1c(N)ncnc1N1CCC(c2nc(-c3ccc(F)c(C)c3)cn2CCN2CCCC2)CC1` [Compound 298], the pIC50 was 8.17 in test [1] and 8.18 in test [2].

For `Nc1ncnc(N2CCC(c3nc(-c4ccc(F)c(C(F)(F)F)c4)cn3CCN3CCC3)CC2)c1-c1ccc(C(=O)O)cc1` [Compound 224], the figures for the pIC50 in test [1] and in test [2] were 8.24 and 7.92, respectively.

Turning to `CCc1c(N)ncnc1N1CCC(c2nc(-c3ccc(F)c(C)c3)cn2CCN(CC)CC)CC1` [Compound 296], the pIC50 in test [1] was 8.80; in test [2], 8.59.

With `NC(=O)c1c(N)ncnc1N1CCC(c2nc(-c3ccc(F)c(F)c3)cn2CCN2CCC2)CC1` [Compound 328], the values for the pIC50 in test [1] and in test [2] were 8.09 and 6.85, respectively.

As to `NC(=O)c1c(N)ncnc1N1CCC(c2nc(-c3ccc(F)c(C(F)(F)F)c3)cn2C[C@@H]2CCN2)CC1` [Compound 150, (S)-4-amino-6-(4-(1-(azetidin-2-ylmethyl)-4-(4-fluoro-3-(trifluoromethyl)phenyl)-1H-imidazol-2-yl)piperidin-1-yl)pyrimidine-5-carboxamide], the values for the pIC50 in test [1] and in test [2] were 8.00 and 6.66, respectively.

Regarding `N#Cc1c(N)ncnc1N1CCC(c2nc(-c3cccc(C(F)(F)F)c3)cn2CCN2CCCC2)CC1` [Compound 310], the values for the pIC50 in test [1] and in test [2] were 8.64 and 8.12, respectively.

Regarding `CCc1c(N)ncnc1N1CCC(c2nc(-c3cncc(C)c3)cn2CCN2CCC2)CC1` [Compound 113, 6-(4-(1-(2-(azetidin-1-yl)ethyl)-4-(5-methylpyridin-3-yl)-1H-imidazol-2-yl)piperidin-1-yl)-5-ethylpyrimidin-4-amine], the negative-log IC50 (pIC50) in test [1] was 7.08; in test [2], 6.33.
